Reference: patent publication US20150051278A1, “METHOD OF EXTERMINATING HARMFUL INSECT” (KAO CORPORATION, priority 2012, published 2015)

Assays:
Assay type in all cases: in vivo
planthopper = assay: Insecticidal test I; conditions: planthopper on rice seedling, 3 days after spraying
Protocol: A seedling of rice plant was grown in a 12 cm pot until the plant height reaches 15 cm. Ten individuals of planthopper, which had passed 3 to 5 days after emergence, were applied per one rice plant. The rice plant was trial-cultured for three repetitions. With 1 L of water, an insecticide was mixed in such an amount that the concentration of each of the compounds at the time of spraying was the amount indicated in Table 4, thereby preparing the spray liquid of insecticide. This spray liquid was sprayed on the leaf surface of the seedling of rice plant attached with planthoppers in the application amount indicated in Table 4. After air drying, the seedling of rice plant sprayed with the spray liquid was covered with a wire gauze cylinder. Three days later, the number of surviving insects was measured, and the insect killing rate (indicated as the “insect killing rate I” in Table 4) was calculated by the following equation. It means that the effect of agricultural chemical (insecticidal effect) is high as the value of the insect killing rate is high.
Insect killing rate (%)=(the number of surviving insects in non-treated area−the number of surviving insects in treated area)/the number of surviving insects in non-treated area×100

cotton aphid = assay: Insecticidal test II; conditions: cotton aphid on cabbage leaf, 1 day after spraying
Protocol: A cabbage seedling was grown in a 12 cm pot until to be a ten-leaf stage. The leaf of cabbage was cut and placed in a petri dish with a diameter of 9 cm, and 15 individuals of cotton aphid were trial cultured for three repetitions. With 1 L of water, the insecticide was mixed in such an amount that the concentration of each of the compounds at the time of spraying was the amount indicated in Table 4, thereby preparing the spray liquid of insecticide. This spray liquid was sprayed to the leaf surface of the cabbage attached with cotton aphids in the application amount indicated in Table 4. After air drying, the petri dish was covered with a lid, and an oxygen permeable seal was sealed around the petri dish so as to prevent the escape of the aphid therefrom. One day later, the number of surviving insects was measured, and the insect killing rate (indicated as the “insect killing rate II” in Table 4) was calculated by the following equation. It means that the effect of agricultural chemical (insecticidal effect) is high as the value of the insect killing rate is high. Insect killing rate (%)=(the number of surviving insects in non-treated area−the number of surviving insects in treated area)/the number of surviving insects in non-treated area×100

Kanzawa spider mite = assay: Acaricidal test; conditions: Kanzawa spider mite on kidney bean, 3 days after spraying
Protocol: A kidney bean was grown in a 12 cm pot until to be a 5-leaf stage. Thirty individuals of Kanzawa spider mite per one plant were implanted for three repetitions. To 1 L of water, the insecticide was mixed such that the concentration of each of the compounds at the time of spraying becomes the amount indicated in Table 4 and Table 6, thereby preparing the spray liquid of insecticide. This spray liquid was sprayed on the leaf surface of the kidney bean attached with Kanzawa spider mites in the application amount indicated in Table 4 and Table 6. After air drying, the kidney bean sprayed with the spray liquid was covered with a wire gauze cylinder. Three days later, the number of surviving mites was measured, and the mite killing rate was calculated by the following equation. It means that the effect of agricultural chemical (acaricidal effect) is high as the value of the mite killing rate is high. Mite killing rate (%)=(the number of surviving mites in non-treated area−the number of surviving mites in treated area)/the number of surviving mites in non-treated area×100

[1] = application amount 100 L/10 a, (A)+(B) concentration 1000 ppm

Substance	Insect killing rate I (planthopper; [1])	Insect killing rate II (cotton aphid; [1])	Mite killing rate (Kanzawa spider mite; [1])	Insect killing rate I (planthopper; 100 L/10 a, 2000 ppm)	Insect killing rate II (cotton aphid; 100 L/10 a, 2000 ppm)	Mite killing rate (Kanzawa spider mite; 100 L/10 a, 2000 ppm)
Monocapric acid monoglycerine [compound 7]	46%	57%	40%			
Octyl alcohol [compound 22]				24%	34%	22%
